Measurements taken from article PMC9823097, “Dysregulation of PRMT5 in chronic lymphocytic leukemia promotes progression with high risk of Richter’s transformation” (Nature Communications, 2023).
Several values for one entry are separate records, joined by “and”; a condition that tells them apart may be missing. Equal values may be shown once.

Tests used:
PRMT5 in Mec-1 cell line = assay: Cas9-mediated doxycycline-inducible knockout of PRMT5, Mec-1 proliferation; type: cell-based; settings: +doxy
From the text: Proteins extracted from whole-cell lysates were resolved by SDS-PAGE and transferred on nitrocellulose membrane as previously described. CpG685 oligonucleotide was obtained from the OSU Cytogenetics Core Lab. Antibodies used for immunoblots included anti-human PRMT5 (Abcam #ab109451), GAPDH (Millipore Sigma #MAB374), SDMA (Cell Signaling Technology #13222), c-Myc (Cell Signaling Technology #5605S), and β-Actin (Cell Signaling Technology #4967S). Cas9-mediated doxycycline-inducible knockout of PRMT5 utilized a targeted sgRNA (guide sequence: […], PAM: GGG).

HG3 cells = assay: Cell growth curves over 12 days, HG3; type: cell-based; settings: for anti-proliferative potency compared to PRT382: HG3
Description: (§1) Live cells/mL were counted on days 3, 6, 10, and 12. […] The split factor was calculated at indicated time points by dividing the counted cells/mL by 3E5. Cell growth was extrapolated over time by multiplying the subsequent cell count by the previous split factor. Cell growth is plotted as fold change relative to DMSO-treated cells.

Mec-1 cells = assay: Cell growth curves over 12 days, Mec-1; type: cell-based; settings: for anti-proliferative potency compared to PRT382: Mec-1
Description: as §1

[1] = system: PRMT5 expression in CLL cells; assay: PRMT5 mRNA and protein expression in CpG-stimulated CLL cells upon BRD4 inhibition; type: cell-based, human
[2] = system: BRD4 occupancy at the PRMT5 locus; assay: ChIP-seq of H3K27Ac and BRD4 binding at the PRMT5 locus; type: cell-based; settings: vehicle, CpG, or PLX51107 treatment

Compound: C[C@H]1c2cccc(O)c2C(O)=C2C(=O)[C@]3(O)C(O)=C(C(N)=O)C(=O)[C@@H](N(C)C)[C@@H]3[C@@H](O)[C@@H]21 [+doxy]
- Rep. 1 Live cells/mL (PRMT5 in Mec-1 cell line; 1 days treated): 170000 cells/mL
- Rep. 2 Live cells/mL (PRMT5 in Mec-1 cell line; 1 days treated): 158000 cells/mL
- Rep. 1 Live cells/mL (PRMT5 in Mec-1 cell line; 2 days treated): 387000 cells/mL
- Rep. 2 Live cells/mL (PRMT5 in Mec-1 cell line; 2 days treated): 352000 cells/mL
- Rep. 1 Live cells/mL (PRMT5 in Mec-1 cell line; 3 days treated): 686000 cells/mL
- Rep. 2 Live cells/mL (PRMT5 in Mec-1 cell line; 3 days treated): 721000 cells/mL
- Rep. 1 Live cells/mL (PRMT5 in Mec-1 cell line; 4 days treated): 991000 cells/mL
- Rep. 2 Live cells/mL (PRMT5 in Mec-1 cell line; 4 days treated): 944000 cells/mL
- Rep. 1 Live cells/mL (PRMT5 in Mec-1 cell line; 5 days treated): 827000 cells/mL
- Rep. 2 Live cells/mL (PRMT5 in Mec-1 cell line; 5 days treated): 862000 cells/mL
- Rep. 1 Live cells/mL (PRMT5 in Mec-1 cell line; 6 days treated): 1180000 cells/mL
- Rep. 2 Live cells/mL (PRMT5 in Mec-1 cell line; 6 days treated): 1280000 cells/mL

Compound: Nc1ncnc2c1ccn2C1OC(C(O)c2ccc(Cl)c(F)c2)C(O)C1O (stereo not shown) [PF-06855800]
- Rep 1 Live Cells [Fold Change] (HG3 cells; HG3, 1 nM, day 0): 1 Fold Change
- Rep 2 Live Cells [Fold Change] (HG3 cells; HG3, 1 nM, day 0): 1 Fold Change
- Rep 1 Live Cells [Fold Change] (HG3 cells; HG3, 1 nM, day 3): 3.4 Fold Change
- Rep 2 Live Cells [Fold Change] (HG3 cells; HG3, 1 nM, day 3): 6.6 Fold Change
- Rep 1 Live Cells [Fold Change] (HG3 cells; HG3, 1 nM, day 6): 16.32 Fold Change
- Rep 2 Live Cells [Fold Change] (HG3 cells; HG3, 1 nM, day 6): 45.98 Fold Change
- Rep 1 Live Cells [Fold Change] (HG3 cells; HG3, 1 nM, day 10): 137.904 Fold Change
- Rep 2 Live Cells [Fold Change] (HG3 cells; HG3, 1 nM, day 10): 282.777 Fold Change
- Rep 1 Live Cells [Fold Change] (HG3 cells; HG3, 1 nM, day 12): 482.664 Fold Change
- Rep 2 Live Cells [Fold Change] (HG3 cells; HG3, 1 nM, day 12): 1404.46 Fold Change
- Rep 1 Live Cells [Fold Change] (HG3 cells; HG3, 10 nM, day 0): 1 Fold Change
- Rep 2 Live Cells [Fold Change] (HG3 cells; HG3, 10 nM, day 0): 1 Fold Change
- Rep 1 Live Cells [Fold Change] (HG3 cells; HG3, 10 nM, day 3): 3.27 Fold Change
- Rep 2 Live Cells [Fold Change] (HG3 cells; HG3, 10 nM, day 3): 4.767 Fold Change
- Rep 1 Live Cells [Fold Change] (HG3 cells; HG3, 10 nM, day 6): 11.445 Fold Change
- Rep 2 Live Cells [Fold Change] (HG3 cells; HG3, 10 nM, day 6): 11.6783 Fold Change
- Rep 1 Live Cells [Fold Change] (HG3 cells; HG3, 10 nM, day 10): 19.7426 Fold Change
- Rep 2 Live Cells [Fold Change] (HG3 cells; HG3, 10 nM, day 10): 14.8315 Fold Change
- Rep 1 Live Cells [Fold Change] (HG3 cells; HG3, 10 nM, day 12): 31.5074 Fold Change
- Rep 2 Live Cells [Fold Change] (HG3 cells; HG3, 10 nM, day 12): 21.021 Fold Change
- Rep 1 Live Cells [Fold Change] (HG3 cells; HG3, 100 nM, day 0): 1 Fold Change
- Rep 2 Live Cells [Fold Change] (HG3 cells; HG3, 100 nM, day 0): 1 Fold Change
- Rep 1 Live Cells [Fold Change] (HG3 cells; HG3, 100 nM, day 3): 3.157 Fold Change
- Rep 2 Live Cells [Fold Change] (HG3 cells; HG3, 100 nM, day 3): 5.133 Fold Change
- Rep 1 Live Cells [Fold Change] (HG3 cells; HG3, 100 nM, day 6): 5.956 Fold Change
- Rep 2 Live Cells [Fold Change] (HG3 cells; HG3, 100 nM, day 6): 6.365 Fold Change
- Rep 1 Live Cells [Fold Change] (HG3 cells; HG3, 100 nM, day 10): 4.824 Fold Change
- Rep 2 Live Cells [Fold Change] (HG3 cells; HG3, 100 nM, day 10): 6.047 Fold Change
- Rep 1 Live Cells [Fold Change] (HG3 cells; HG3, 100 nM, day 12): 3.339 Fold Change
- Rep 2 Live Cells [Fold Change] (HG3 cells; HG3, 100 nM, day 12): 4.755 Fold Change
- Rep 1 Live Cells [Fold Change] (HG3 cells; HG3, 1 µM, day 0): 1 Fold Change
- Rep 2 Live Cells [Fold Change] (HG3 cells; HG3, 1 µM, day 0): 1 Fold Change
- Rep 1 Live Cells [Fold Change] (HG3 cells; HG3, 1 µM, day 3): 3.733 Fold Change
- Rep 2 Live Cells [Fold Change] (HG3 cells; HG3, 1 µM, day 3): 5.933 Fold Change
- Rep 1 Live Cells [Fold Change] (HG3 cells; HG3, 1 µM, day 6): 6.21 Fold Change
- Rep 2 Live Cells [Fold Change] (HG3 cells; HG3, 1 µM, day 6): 5.993 Fold Change
- Rep 1 Live Cells [Fold Change] (HG3 cells; HG3, 1 µM, day 10): 3.912 Fold Change
- Rep 2 Live Cells [Fold Change] (HG3 cells; HG3, 1 µM, day 10): 5.304 Fold Change
- Rep 1 Live Cells [Fold Change] (HG3 cells; HG3, 1 µM, day 12): 2.641 Fold Change
- Rep 2 Live Cells [Fold Change] (HG3 cells; HG3, 1 µM, day 12): 3.878 Fold Change
- anti-proliferative potency compared to PRT382 (HG3 cells; high doses (1µM)): similar
- anti-proliferative potency compared to PRT382 (HG3 cells; lower doses (10nM, 100nM)): more potent
- Rep 1 Live Cells [Fold Change] (Mec-1 cells; Mec-1, 1 nM, day 0): 1 Fold Change
- Rep 2 Live Cells [Fold Change] (Mec-1 cells; Mec-1, 1 nM, day 0): 1 Fold Change
- Rep 1 Live Cells [Fold Change] (Mec-1 cells; Mec-1, 1 nM, day 3): 5.6 Fold Change
- Rep 2 Live Cells [Fold Change] (Mec-1 cells; Mec-1, 1 nM, day 3): 6.6 Fold Change
- Rep 1 Live Cells [Fold Change] (Mec-1 cells; Mec-1, 1 nM, day 6): 24.6 Fold Change
- Rep 2 Live Cells [Fold Change] (Mec-1 cells; Mec-1, 1 nM, day 6): 45.98 Fold Change
- Rep 1 Live Cells [Fold Change] (Mec-1 cells; Mec-1, 1 nM, day 10): 216 Fold Change
- Rep 2 Live Cells [Fold Change] (Mec-1 cells; Mec-1, 1 nM, day 10): 282.777 Fold Change
- Rep 1 Live Cells [Fold Change] (Mec-1 cells; Mec-1, 1 nM, day 12): 1400 Fold Change
- Rep 2 Live Cells [Fold Change] (Mec-1 cells; Mec-1, 1 nM, day 12): 1404.46 Fold Change
- Rep 1 Live Cells [Fold Change] (Mec-1 cells; Mec-1, 10 nM, day 0): 1 Fold Change
- Rep 2 Live Cells [Fold Change] (Mec-1 cells; Mec-1, 10 nM, day 0): 1 Fold Change
- Rep 1 Live Cells [Fold Change] (Mec-1 cells; Mec-1, 10 nM, day 3): 4.77 Fold Change
- Rep 2 Live Cells [Fold Change] (Mec-1 cells; Mec-1, 10 nM, day 3): 4.767 Fold Change
- Rep 1 Live Cells [Fold Change] (Mec-1 cells; Mec-1, 10 nM, day 6): 9.22 Fold Change
- Rep 2 Live Cells [Fold Change] (Mec-1 cells; Mec-1, 10 nM, day 6): 11.6783 Fold Change
- Rep 1 Live Cells [Fold Change] (Mec-1 cells; Mec-1, 10 nM, day 10): 14.1 Fold Change
- Rep 2 Live Cells [Fold Change] (Mec-1 cells; Mec-1, 10 nM, day 10): 14.8315 Fold Change
- Rep 1 Live Cells [Fold Change] (Mec-1 cells; Mec-1, 10 nM, day 12): 6.51 Fold Change
- Rep 2 Live Cells [Fold Change] (Mec-1 cells; Mec-1, 10 nM, day 12): 21.021 Fold Change
- Rep 1 Live Cells [Fold Change] (Mec-1 cells; Mec-1, 100 nM, day 0): 1 Fold Change
- Rep 2 Live Cells [Fold Change] (Mec-1 cells; Mec-1, 100 nM, day 0): 1 Fold Change
- Rep 1 Live Cells [Fold Change] (Mec-1 cells; Mec-1, 100 nM, day 3): 4.7 Fold Change
- Rep 2 Live Cells [Fold Change] (Mec-1 cells; Mec-1, 100 nM, day 3): 5.133 Fold Change
- Rep 1 Live Cells [Fold Change] (Mec-1 cells; Mec-1, 100 nM, day 6): 7 Fold Change
- Rep 2 Live Cells [Fold Change] (Mec-1 cells; Mec-1, 100 nM, day 6): 6.365 Fold Change
- Rep 1 Live Cells [Fold Change] (Mec-1 cells; Mec-1, 100 nM, day 10): 3.48 Fold Change
- Rep 2 Live Cells [Fold Change] (Mec-1 cells; Mec-1, 100 nM, day 10): 6.047 Fold Change
- Rep 1 Live Cells [Fold Change] (Mec-1 cells; Mec-1, 100 nM, day 12): 1.18 Fold Change
- Rep 2 Live Cells [Fold Change] (Mec-1 cells; Mec-1, 100 nM, day 12): 4.755 Fold Change
- Rep 1 Live Cells [Fold Change] (Mec-1 cells; Mec-1, 1 µM, day 0): 1 Fold Change
- Rep 2 Live Cells [Fold Change] (Mec-1 cells; Mec-1, 1 µM, day 0): 1 Fold Change
- Rep 1 Live Cells [Fold Change] (Mec-1 cells; Mec-1, 1 µM, day 3): 3.93 Fold Change
- Rep 2 Live Cells [Fold Change] (Mec-1 cells; Mec-1, 1 µM, day 3): 5.933 Fold Change
- Rep 1 Live Cells [Fold Change] (Mec-1 cells; Mec-1, 1 µM, day 6): 5.81 Fold Change
- Rep 2 Live Cells [Fold Change] (Mec-1 cells; Mec-1, 1 µM, day 6): 5.993 Fold Change
- Rep 1 Live Cells [Fold Change] (Mec-1 cells; Mec-1, 1 µM, day 10): 3.37 Fold Change
- Rep 2 Live Cells [Fold Change] (Mec-1 cells; Mec-1, 1 µM, day 10): 5.304 Fold Change
- Rep 1 Live Cells [Fold Change] (Mec-1 cells; Mec-1, 1 µM, day 12): 1.63 Fold Change
- Rep 2 Live Cells [Fold Change] (Mec-1 cells; Mec-1, 1 µM, day 12): 3.878 Fold Change
- anti-proliferative potency compared to PRT382 (Mec-1 cells; high doses (1µM)): similar
- anti-proliferative potency compared to PRT382 (Mec-1 cells; lower doses (10nM, 100nM)): more potent

Compound: Cc1noc(C)c1-c1cnc2c(-c3ccc(C(=O)O)cc3)cn([C@@H](C)c3ccccn3)c2c1 [PLX51107]
- PRMT5 protein expression ([1]; 72h 10µM PLX51107, CLL cells stimulated with 21.7 µg/mL CpG, n=5 patients): Reduced
- PRMT5 mRNA expression ([1]; 72h 10µM PLX51107, CLL cells stimulated with 21.7 µg/mL CpG, n=8 patients): Reduced
- PRMT5 Relative Expression (2-ΔCt) ([1]; individual samples, Supplemental Figure 7C): 1.507 and 1.2928 and 1.349 and 0.5743 and 1.232 and 0.9553 and 1.659 and 0.935
- BRD4 occupancy at the PRMT5 locus enhancer [2]: lost
